Among the data in EP3693362B1, “PARASITIC PLANT GERMINATION REGULATOR” (National University Corporation Tokai National Higher …, priority 2017, dated 2019) are IC50 values, retold here.

What all share (assay): Affinity for strigolactone receptor, YLG probe competition (fluorescence)
Holding throughout (assay type): binding
Conditions in all cases: competition with YLG, test range 0.01 to 10 µM, pH 7.0, read-out: IC50 values of test compounds

One experiment deals with T1, HTL4 (Striga hermonthica, UniProt A0A0M4AMQ0).
T1 sequence (A0A0M4AMQ0 1-271): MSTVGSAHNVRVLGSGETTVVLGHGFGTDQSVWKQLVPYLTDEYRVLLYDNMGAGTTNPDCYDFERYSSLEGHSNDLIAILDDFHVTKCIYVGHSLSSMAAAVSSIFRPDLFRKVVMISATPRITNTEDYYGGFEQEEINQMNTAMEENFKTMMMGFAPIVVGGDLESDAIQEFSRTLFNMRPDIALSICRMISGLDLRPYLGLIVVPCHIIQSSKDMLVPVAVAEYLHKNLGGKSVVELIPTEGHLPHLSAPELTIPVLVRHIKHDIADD
The procedure:
(§1) PTL 1 reports that the affinity of a test compound for the strigolactone receptor can be evaluated by reacting strigolactone with a probe for evaluation of affinity for a strigolactone receptor (e.g., YLG) in the presence of the test compound, and measuring the fluorescence emitted from the decomposition product of YLG. Therefore, the compounds synthesized in Example 1 were used as the test compounds, and the affinity for the strigolactone receptor was evaluated by a similar method to the above. The details are as follows.
(§2) An Arabidopsis thaliana strigolactone receptor (AtD14) was produced in accordance with a usual method. More specifically, cDNA of the receptor was obtained by RT-PCR, and expression and purification were carried out in E. coli. Additionally, Striga strigolactone receptors were produced by the method disclosed in PTL 1 (ShHTL1: amino acid SEQ ID NO: 1, ShHTL2: amino acid SEQ ID NO: 2, ShHTL3: amino acid SEQ ID NO: 3, ShHTL4: amino acid SEQ ID NO: 4, ShHTL5: amino acid SEQ ID NO: 5, ShHTLS: amino acid SEQ ID NO: 6, ShHTL7: amino acid SEQ ID NO: 7, ShHTLS: amino acid SEQ ID NO: 8, ShHTL9: amino acid SEQ ID NO: 9, ShHTL10: amino acid SEQ ID NO: 10, and ShHTL11: amino acid SEQ ID NO: 11.)
(§3) One hundred microliters of a reaction solution containing each of the obtained strigolactone receptors ([…]), YLG (final concentration: […]), and each of the test compounds (final concentration: 0.01 to 10 µM) or the control compound (5-deoxystrigol, final concentration: 0.01 to 10 µM) as a competitive compound (100 mM HEPES, 150 mM NaCl, pH: 7.0, 0.1% DMSO) was prepared and reacted in a 96 black-well plate (Greiner). Sixty after the initiation of the reaction, fluorescence was detected at an excitation wavelength of 480 nm and a detection wavelength of 520 nm using a fluorescence detector (SpectraMax i3, manufactured by Molecular Devices), and the fluorescence intensity was measured. Based on the measurement results of fluorescence intensity, a Lineweaver-Burk plot was created to calculate the Km values, and the IC50 values of each of the test compounds and the control compound, which are competitive compounds.
(§4) In Table 7, HTL1 to HTL11 refer to strigolactone receptors (SEQ ID NOs: 1 to 11), and AtD14 refer to the Arabidopsis thaliana strigolactone receptor.

The next experiment has as its target T2, HTL2 (Striga hermonthica, UniProt A0A0M4AMP1).
T2 sequence (A0A0M4AMP1 1-285): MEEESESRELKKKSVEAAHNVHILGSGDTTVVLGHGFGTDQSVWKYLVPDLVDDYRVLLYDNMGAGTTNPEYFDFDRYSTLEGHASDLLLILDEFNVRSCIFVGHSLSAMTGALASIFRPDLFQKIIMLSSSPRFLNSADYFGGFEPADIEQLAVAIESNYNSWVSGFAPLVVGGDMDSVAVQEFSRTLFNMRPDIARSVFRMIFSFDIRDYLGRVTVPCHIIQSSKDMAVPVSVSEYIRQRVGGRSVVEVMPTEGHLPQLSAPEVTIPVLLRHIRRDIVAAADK
As for the experimental part: as §1, §2, §3, §4

Another experiment deals with T3, HTL6 (Striga hermonthica, UniProt A0A0M4AUV4).
T3 sequence (A0A0M4AUV4 1-271): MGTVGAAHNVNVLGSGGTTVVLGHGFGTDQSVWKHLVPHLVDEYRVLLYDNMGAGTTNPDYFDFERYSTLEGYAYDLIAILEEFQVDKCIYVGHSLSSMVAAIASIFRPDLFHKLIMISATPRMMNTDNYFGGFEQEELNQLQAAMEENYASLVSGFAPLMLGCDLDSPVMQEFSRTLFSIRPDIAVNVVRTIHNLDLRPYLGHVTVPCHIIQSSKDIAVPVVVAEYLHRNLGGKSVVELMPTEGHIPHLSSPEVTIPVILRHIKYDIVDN
The procedure: as §1, §2, §3, §4

Another experiment addresses T4, HTL9 (Striga hermonthica, UniProt A0A0M4AGW0).
T4 sequence (A0A0M4AGW0 1-271): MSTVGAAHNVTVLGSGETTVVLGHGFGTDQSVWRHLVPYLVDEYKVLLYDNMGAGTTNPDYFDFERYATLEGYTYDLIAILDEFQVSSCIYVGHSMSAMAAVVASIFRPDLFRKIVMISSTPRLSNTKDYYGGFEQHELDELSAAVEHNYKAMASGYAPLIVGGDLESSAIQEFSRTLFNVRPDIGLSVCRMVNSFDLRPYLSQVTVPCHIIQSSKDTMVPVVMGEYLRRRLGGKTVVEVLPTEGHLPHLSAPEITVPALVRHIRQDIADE
The procedure: as §1, §2, §3, §4

A further experiment concerns the target T5, HTL7 (Striga hermonthica, UniProt A0A0M3PNA2).
T5 sequence (A0A0M3PNA2 1-271): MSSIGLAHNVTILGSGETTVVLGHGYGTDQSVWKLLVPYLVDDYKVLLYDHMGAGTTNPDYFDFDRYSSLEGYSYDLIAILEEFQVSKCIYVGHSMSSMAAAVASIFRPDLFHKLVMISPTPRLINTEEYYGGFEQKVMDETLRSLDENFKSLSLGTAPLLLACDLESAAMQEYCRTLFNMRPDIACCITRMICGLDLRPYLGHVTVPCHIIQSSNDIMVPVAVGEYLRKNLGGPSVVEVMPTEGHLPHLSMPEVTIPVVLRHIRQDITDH
As for the experimental part: as §1, §2, §3, §4

The target of another experiment is T6, HTL10 (Striga hermonthica, UniProt A0A0M4AH20).
T6 sequence (A0A0M4AH20 1-268): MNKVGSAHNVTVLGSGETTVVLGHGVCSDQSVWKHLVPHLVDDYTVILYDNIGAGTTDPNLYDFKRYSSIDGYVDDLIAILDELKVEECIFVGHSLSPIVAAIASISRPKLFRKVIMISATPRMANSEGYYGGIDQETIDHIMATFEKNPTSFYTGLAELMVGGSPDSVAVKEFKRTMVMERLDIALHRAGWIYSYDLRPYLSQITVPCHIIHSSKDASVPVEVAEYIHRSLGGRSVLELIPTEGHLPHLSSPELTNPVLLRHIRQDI
As for the experimental part: as §1, §2, §3, §4

The structures appear in SMILES notation.

The term IC50 denotes the midpoint of a concentration-inhibition curve. As to `CC1=CC(OC=C2C(=O)OC3C4=C(CCCC4(C)C)CC23)OC1=O` (stereo not drawn) [5-Ddeoxystriqol, 5-deoxystrigol, reference compound], the IC50 on HTL4 amounted to 0.3 µM; on HTL2, 8.9 µM; at HTL6, 0.19 µM; at HTL9, 1.2 µM; at HTL7 it was 0.12 µM; at HTL10, 0.62 µM.

Regarding `CC1=CC(OC(=O)NCc2ccccc2)OC1=O` (stereo not drawn) [Comparison Compound 1, reference compound], the IC50 at HTL4, at HTL2, on HTL6, at HTL9, on HTL7 and on HTL10 was above 10 µM in each case.

For the compound `CCCCOc1ccc(S(=O)(=O)N2CCN(C(=O)OC3C=C(C)C(=O)O3)CC2)cc1` (stereo not drawn) [Compound 1], the IC50 on HTL4 is above 10 µM; on HTL2 it was above 10 µM; on HTL6 it was above 10 µM; at HTL9, above 10 µM; at HTL7, 0.31 µM; on HTL10, above 10 µM.

For `CCCCOc1ccc(S(=O)(=O)N2CCN(C(=O)OC3C=CC(=O)O3)CC2)cc1` (stereo not drawn) [Compound 13], the IC50 at HTL4 was above 10 µM; on HTL2 it was above 10 µM; on HTL6 it was above 10 µM; on HTL9, above 10 µM; on HTL7 it was 0.75 µM; on HTL10, above 10 µM.
